Reference: patent US20190022117A1, “COMBINATION THERAPY” (NuCana plc, priority 2015, published 2019)
Like-named read-outs stand apart in the source and are kept apart here.

Experiments:
[1] = tested on: A2780; assay: CellTiter-Glo cytotoxicity assay, single agents (Stage 1); assay type: cell-based; settings: CTG assay 72 h; for IC50: Homo sapiens
Description: (§1) A2780, SK-OV-3, OVCAR-3, NCI-H460, NCI-H1975, NCI-H2122, 5637 and HT1376 were cultured in RPMI Medium 1640 (Invitrogen-22400105) supplemented with 10% fetal bovine serum (FBS; Invitrogen-10099141). All the cell lines were maintained in a humidified incubator at 37° C. with 5% CO2. Cell culture media and supplements were purchased from Invitrogen, and tissue culture flasks were purchased from Corning, 96-well plates and 384-well plates were purchased from Greiner. CellTiter-Glo Luminescent Cell Viability Assay kits were purchased from Promega (Promega-G7573), cells counter Vi-Cell was purchased from Beckman, detection instrument Envision was purchased from PerkinElmer.
(§2) Paclitaxcel (used as a reference) and cisplatin were purchased from SELLECK, and they were of highest purity available. All compounds attained solubility in DMSO and when diluted into culture media. DMSO, compounds solutions and culture media were warmed to 37° C. for the solution preparation and dilutions.
(§3) Eight cell lines were allowed to adhere to 96-well plates overnight (100 μL/well), for drug treatments with 3.16 fold dilution, 9 dose points, triplicates or vehicle control, compound stock solutions were prepared in DMSO and added to the wells to give the indicated final drug concentrations. Final DMSO concentration was 0.5%. Cellular ATP concentrations were assessed by using the CellTiter-Glo Cell Viability Assay as per the manufacturer's instructions 72 h after drug addition.
(§4) In Stage 1 the IC50 (using 5 or more concentrations) of each individual compound (cisplatin, gemcitabine and NUC-1031) in the relevant cell lines was determined.

[2] = tested on: NCI-H460; assay: as above; assay type: cell-based; settings: CTG assay 72 h; for IC50: Homo sapiens
Description: as §1, §2, §3, §4

[3] = tested on: 5637; assay: as above; assay type: cell-based; settings: CTG assay 72 h
Description: as §1, §2, §3, §4

[4] = tested on: HT1376; assay: as above; assay type: cell-based; settings: for IC50: Homo sapiens, HT-1376, CTG assay 72 h
Description: as §1, §2, §3, §4

[5] = tested on: SK-OV3; assay: as above; assay type: cell-based; settings: for IC50: Homo sapiens, SK-OV-3, CTG assay 72 h
Description: as §1, §2, §3, §4

[6] = tested on: NCI-H1975; assay: as above; assay type: cell-based; settings: CTG assay 72 h; for IC50: Homo sapiens
Description: as §1, §2, §3, §4

[7] = tested on: OVCAR-3; assay: as above; assay type: cell-based; settings: CTG assay 72 h; for IC50: Homo sapiens
Description: as §1, §2, §3, §4

[8] = ABC-008 clinical study (NUC-1031 in combination with cisplatin), plasma pharmacokinetics; assay type: in vivo, human
Description: Initial pharmacokinetic analysis was conducted on samples obtained from the first three patients on the ABC-008 clinical study.
Patient 1: —Metastatic Biliary Tract Carcinoma—Starting dose: 625 mg/m^2 (S)-NUC-1031+25 mg/m^2 cisplatin
Patient 2: —Metastatic Biliary Tract Carcinoma—Starting dose: 625 mg/m^2 (S)-NUC-1031+25 mg/m^2 cisplatin
Patient 3: —Metastatic Biliary Tract Carcinoma—Starting dose: 625 mg/m^2 (S)-NUC-1031+25 mg/m^2 cisplatin
Both NUC-1031 and cisplatin were administered on days 1 and 8 of a 21 day cycle.
An appropriate dosage of 625 mg/m^2 of NUC-1031 was prepared in a Luerlock syringe. The dosage given was based on the subject's height and weight using a standard body surface area (BSA) calculation. A polyethylene extension line was primed with up to 1.5 ml of Flushing Solution, prior to connecting the syringe containing NUC-1031 to the extension line.
The extension line was connected to the patient's Central Venous Access Device (CVAD), and NUC-1031 was injected at a rate of 20 ml/hour using a syringe pump.
Once the injection was complete the NUC-1031 syringe was disconnected from the extension line, and the extension line was then flushed with an additional volume of up to 3 ml of Flushing solution.

[9] = ProGem1 clinical study (NUC-1031 alone), plasma pharmacokinetics; assay type: in vivo, human
Description: ProGem1 was a first-time-in-human (FTIH), phase I, open label, two stage study to investigate the safety, tolerability, clinical efficacy, pharmacokinetics (PK) and pharmacodynamics (PD) of NUC-1031 given in two parallel dosing schedules in subjects with advanced solid malignancies (EudraCT Number: 2011-005232-26). Subjects had the following tumour types at study entry: colorectal cancer (7 subjects), unknown primary (3), ovarian cancer (12), breast cancer (4), pancreatic cancer (9), cholangiocarcinoma (7), endometrial cancer (3), cervical cancer (2), lung cancer (7), mesothelioma (3), oesophageal cancer (3), cancer of the fallopian tube (1), trophoblast (1), renal cancer (1), gastric cancer (1), anal cancer (1), cancer of the thymus (1) and osteosarcoma (1).

[10] = absolute IC50, read-out: Ab IC50
[11] = ABC-008 (with cisplatin) compared to ProGem1 (single agent NUC-1031)

C[C@H](NP(=O)(OC[C@H]1O[C@@H](n2ccc(N)nc2=O)C(F)(F)[C@H]1O)Oc1ccccc1)C(=O)OCc1ccccc1 (stereo partly drawn) [NUC-1031, 2′-Deoxy-2′,2′-difluoro-D-cytidine-5′-O-[phenyl (benzoxy-L-alaninyl)] phosphate]
Max Inhibition_% [1]: 79.15%
IC50 [1, 10]: 25 nM
IC50 ([1]; relative IC50, read-out: IC50): 16 nM
Max Inhibition_% [2]: 91.98%
IC50 [2, 10]: 40 nM
IC50 ([2]; relative IC50, read-out: IC50): 40 nM
Max Inhibition_% [3]: 77.88%
IC50 [3, 10]: 200 nM
IC50 ([3]; relative IC50, read-out: IC50): 120 nM
Max Inhibition_% ([4]; CTG assay 72 h): −2.54%
IC50 [4, 10]: > 1980 nM
IC50 ([4]; relative IC50, read-out: IC50): > 1980 nM
Max Inhibition_% ([5]; CTG assay 72 h): 61.59%
IC50 [5, 10]: 70 nM
IC50 ([5]; relative IC50, read-out: IC50): 60 nM
Max Inhibition_% [6]: 37.91%
IC50 [6, 10]: > 1980 nM
IC50 ([6]; relative IC50, read-out: IC50): 370 nM
Max Inhibition_% [7]: 11.76%
IC50 [7, 10]: > 1980 nM
IC50 ([7]; relative IC50, read-out: IC50): 200 nM
AUC increase, NUC-1031 plasma [8, 11]: 2.1 fold
Cmax increase, NUC-1031 plasma [8, 11]: 1.9 fold
increase in half-life, NUC-1031 plasma PK parameters ([8]; ABC-008 (with cisplatin) compared to single agent NUC-1031): 3.6 fold
levels of the metabolite dFdU relative to gemcitabine ([9]; ProGem1, compared with levels normally associated with gemcitabine): less than half
clearance ([9]; human, plasma, ProGem1 (n = 67), NUC-1031 as a single agent): 86.7 mL/min
Cmax ([9]; human, plasma, ProGem1 (n = 67), NUC-1031 as a single agent, no normalisation): 66.5 µg/mL
AUC(0-t) ([9]; human, plasma, ProGem1 (n = 67), NUC-1031 as a single agent, no normalisation, read-out: Mean AUC0-24, plasma NUC-1031): 66500 ng·h/mL
half-life ([9]; human, plasma, ProGem1 (n = 67), NUC-1031 as a single agent, read-out: Mean terminal t1/2, plasma NUC-1031 (converted)): 54 min
Tmax ([9]; human, plasma, ProGem1 (n = 67), NUC-1031 as a single agent, read-out: Median Tmax, plasma NUC-1031): 30 min
